From publication PMC11726654, “Discovery of MDI-114215: A Potent and Selective LIMK Inhibitor To Treat Fragile X Syndrome” (Journal of Medicinal Chemistry, 2024)
Converted amounts (≈) assume the structure as drawn.

Legend:
[1] = Unbound fraction in brain and plasma; assay type: in vitro ADME; conditions: for fubrain: unbound fraction in brain; for fuplasma: unbound fraction in plasma
[2] = Microsomal stability; conditions: human, microsomes, pH 7.4
[3] = Microsomal stability; conditions: rat, microsomes, pH 7.4
[4] = CNS penetration study; conditions: male, Sprague-Dawley, rat, brain/plasma, iv, 1 mg/kg
[5] = In vivo PK, i.v. dosing; conditions: male, Sprague-Dawley, rat, plasma; for CLint scaled: intravenous; for AUC(0-inf) at 1 h / Vd at 1 h / half-life at 1 h: iv
Procedure: A satellite group of three animals were also administered i.v. test compound (dosed at 1 mg/kg in 10% DMSO/20% Cremophor/70% saline) and after 1 h, the animals culled and brain samples immediately prepared by homogenization in H2O and protein precipitation in MeCN. Bioanalysis on plasma and brain samples were performed using a UHPLC-tandem mass spectrometry using electrospray ionization.

[6] = Thermodynamic solubility; conditions: PBS, pH 7
[7] = In vivo PK, p.o./i.p. dosing; conditions: male, Sprague-Dawley, rat, plasma
[8] = test system: p-cofilin Ser3 levels in SH-SY5Y cells; experiment: AlphaLISA SureFire p-cofilin assay; assay type: cell-based; conditions: Homo sapiens, 2 h, read-out: alphaLISA pIC50 p-cofilin (converted)
Procedure: The AlphaLISA assay for detection of p-cofilin Ser3 levels was followed as previously described.[14] […] Cells were placed in the incubator for 2 h, after which the media was removed and the cells were lysed using 50 μL AlphaLISA 1× lysis buffer (PerkinElmer, USA) containing protease inhibitor cocktail (Sigma/Merck, Dorset, UK) and Pierce phosphatase inhibitor cocktail (Thermo Fisher Scientific, UK). The cell lysate was then transferred to a clean, flat-bottom, white 384-well plate, to which 5 μL/well of acceptor bead solution consisting of Reaction buffer 1, Reaction buffer 2, Activation Buffer and Acceptor Beads from pCofilin SureFire Ultra assay kit (PerkinElmer, USA, cat# ALSU-PCOF-A500) was added under dim light. After incubation at RT for 1 h, 5 μL/well of donor solution consisting of Dilution Buffer and Donor beads was added. The plate was read on a Pherastar reader (BMD Labtech Ltd., Aylesbury, UK) using an AlphaLISA cartridge and AlphaLISA plate settings.

[9] = Caco-2 permeability and efflux; conditions: human, Caco-2
[10] = test system: p-cofilin levels in WT and Fmr1 KO mouse brain slices; experiment: Western blot of p-cofilin in treated hippocampal brain slices; conditions: 3 μM, 30 min, WT and Fmr1 KO (P7–9) brain slices
Procedure: Hippocampal slices were obtained from neonatal (postnatal days 7–9) wild type (WT) and Fmr1 KO mice originally supplied by Jackson Laboratories. […] Mice for experimentation were killed by cervical dislocation. […] The temporal aspects of the brain were trimmed, bisected, then glued to a metal plate, such that the midline was uppermost and horizontal. […] Each individual sample was suspended in 300 μL of buffer and lysed by pipetting on ice. Samples were centrifuged to pellet at 17,000g for 30 min at 4 °C. Protein was quantified using Biorad DC protein assay (Biorad, 5000112) and read on a PheraStar plate reader (BMG Labtech) and standardized to 2 mg/mL each sample.
Sample loading buffer was added to each sample at 1:4 concentrations and boiled for 5 min prior to use. […] Membranes were then blocked in 5% BSA TBST for 1 h at rt and then placed into LIMK1, p-cofilin, cofilin and actin primary antibody solutions at 4 °C overnight. The following day, membranes were washed 3× in TBST solution before being placed in appropriate secondary antibody solutions for 1 h at room temperature. Following a final 3 washes in TBST, the membranes were developed using ClarityMax ECL substrate (Biorad, UK) at a 1:1 ratio. The ECL solution was allowed to develop on the membrane for 5 min prior to visualizing using the CHEMIDOC imaging system (Biorad, UK). […]

SMILES	fubrain [1]	fuplasma [1]	CLint scaled [5]	AUC(0-inf) at 1 h ([5]; 1 mg/kg)	Vd at 1 h ([5]; 1 mg/kg)	half-life at 1 h ([5]; 1 mg/kg)	solubility at 24 h [6]	Cmax at 1 h ([7]; po, 3 mg/kg)	Tmax at 1 h ([7]; po, 3 mg/kg)	bioavailability at 1 h ([7]; po, 3 mg/kg)	IC50 [8]	microsomal CLint at 0.5 h, 2 µM [2]	microsomal CLint at 0.5 h, 2 µM [3]	Papp [9]	further results
CCCCN(Cc1ccc2[nH]ccc2c1)C(=O)c1ccc(S(=O)(=O)Nc2ccccc2)cc1 [Compound 51, N-Butyl-N-(1H-indol-5-ylmethyl)-4-(phenylsulfamoyl)benzamide]	< 0.1%	1.3%	67.8 mL/min/kg	247 ng·h/mL	2.3 L/kg	30 min	3 µM (≈ 1.38 µg/mL)	4.6 ng/mL	60 min	2%					microsomal CLint at 2 μM [2]: 121 µL/min/mg; microsomal CLint at 2 μM [3]: 357 µL/min/mg; Kp at 1 h [4]: 0.4; Kp uu at 1 h [4]: < 0.03
O=C(c1ccc(S(=O)(=O)Nc2ccccc2)cc1)N(Cc1ccc(NCCO)cn1)CC1CC1 [Compound 74, N-(Cyclopropylmethyl)-N-[[5-(2-hydroxyethylamino)-2-pyridyl]methyl]-4-(phenylsulfamoyl)benzamide]	2.8%	8.0%	51.9 mL/min/kg	322 ng·h/mL	1.8 L/kg	42 min		50.8 ng/mL	24 min	15%	661 nM	42 µL/min/mg	114 µL/min/mg		
COCCNc1ccc(CN(CC2CC2)C(=O)c2ccc(S(=O)(=O)Nc3ccccc3)cc2)nc1 [Compound 75, N-(Cyclopropylmethyl)-N-[[5-(2-methoxyethylamino)-2-pyridyl]methyl]-4-(phenylsulfamoyl)benzamide]	2.2%	4.7%	374 mL/min/kg				28 µM (≈ 13.8 µg/mL)	16.8 ng/mL	24 min	13%	77.6 nM	175 µL/min/mg	327 µL/min/mg	8.3 ×10⁻⁶ cm/s	AUC(0-inf) at 1 h ([5]; 0.5 mg/kg): 22.6 ng·h/mL; Vd at 1 h ([5]; 0.5 mg/kg): 10.9 L/kg; half-life at 1 h ([5]; 0.5 mg/kg): 24 min; Cmax at 1 h ([7]; ip, 10 mg/kg): 134 ng/mL; Tmax at 1 h ([7]; ip, 10 mg/kg): 18 min; bioavailability ([7]; ip, 10 mg/kg): 55%
O=C(c1ccc(S(=O)(=O)Nc2ccccc2)cc1)N(Cc1ccc(OCCO)cc1)CC1CC1 [Compound 86, N-(Cyclopropylmethyl)-N-[[4-(2-hydroxyethoxy)phenyl]methyl]-4-(phenylsulfamoyl)benzamide]	0.9%	1.4%					6 µM (≈ 2.88 µg/mL)				56.2 nM	119 µL/min/mg	420 µL/min/mg	15 ×10⁻⁶ cm/s	
CCn1c(=O)c(-c2ccc(Cl)cc2Cl)cc2cnc(Nc3ccc(N4CCNCC4)c(F)c3)nc21 [FRAX486]															p-cofilin levels vs vehicle [10]: consistent reduction
